# Peptide text beside a SMILES is read from it. * marks the point of attachment. Cbz = O=C(OCc1ccccc1)*
# Assays:
# cancer cells = assay: IFNγ treatment of cancer cells, PD-L1 in cellular and 100 k g fractions and vesicle number; type: cell-based
# Description: In vivo, tumor cells can mediate adaptive resistance by up-regulating PD-L1 in response to interferon-gamma (IFNγ) released by the cytotoxic T lymphocytes within the tumor bed. Therefore, it was explored whether, in addition to up-regulating cellular PD-L1, IFNγ may increase the secretion of PD-L1. Treatment of cancer cells with IFNγ led to an increase in PD-L1 in both the cellular and 100 k g fractions. […] Thus, similar to the cell surface membrane PD-L1, extracellular vesicular PD-L1 increased in response to IFNγ.
# PC3 and SK-MEL-28 cells = assay: Lysosome / proteasome inhibition, western analysis of PD-L1 protein levels; type: cell-based; details: for PD-L1 protein levels: both lines
# Method: Next, potential differences in protein degradation were evaluated. The two main pathways for protein degradation are the lysosome and the proteasome. The small molecule Bafalomycin A1 (BafA1) inhibits lysosomal activity by blocking the V-ATPase hydrogen pump and thus acidification of the lysosome. An increase in the protein LC3B, a known target of the lysosome, confirmed effectiveness of the small molecule on PC3 and SK-MEL-28 cells. However, levels of PD-L1 in both lines were unaltered, implying little turnover of PD-L1 by the lysosome in these cells. The small molecule MG132 suppresses proteasome activity by blocking the 26s proteasome complex and consequentially proteolysis. The proteasome recognizes ubiquitin side chains on its targets. An increase in the presence of ubiquitinated proteins confirmed the effectiveness of MG132 on the two cells lines.
Compound,PD-L1 in both the cellular and 100 k g fractions (cancer cells),number of vesicles secreted (cancer cells),presence of ubiquitinated proteins (PC3 and SK-MEL-28 cells; PC3 and SK-MEL-28 cells),PD-L1 protein levels (PC3 and SK-MEL-28 cells; PC3 and SK-MEL-28 cells),"PD-L1 levels (PC3 and SK-MEL-28 cells; SK-MEL-28 cells only, not PC3)","protein LC3B, known target of the lysosome (PC3 and SK-MEL-28 cells; PC3 and SK-MEL-28 cells)"
"interferon-gamma [IFNγ, interferon-gamma released by cytotoxic T lymphocytes]",increase,did not increase,,,,
CC(C)C[C@@H](C=O)NC(=O)[C@H](CC(C)C)NC(=O)[C@H](CC(C)C)NC(=O)OCc1ccccc1 [MG132] (Cbz-Leu-Leu-Leu-aldehyde),,,increase,minimally affected,slightly up,
"CO/C1=C\C(C)=C\[C@@H](C)[C@@H](O)[C@@H](C)C/C(C)=C/C=C/[C@H](OC)[C@@H]([C@@H](C)[C@@H](O)[C@H](C)[C@@]2(O)C[C@@H](O)[C@H](C)[C@@H](C(C)C)O2)OC1=O [BafA1, Bafalomycin A1]",,,,unaltered,,increase
